This note sets out measurements from patent EP1484330B1, “Triazole compouds suitable for treating disorders that respond to modulation of the dopamine D3 receptor” (Abbott GmbH & Co. KG, priority 2003, dated 2004).

In data set [1] the target is T1, human dopamine D3 receptors (Homo sapiens, UniProt P35462).
T1 construct: expressed in transfected cells; membranes used
The experiment in a line: Receptor binding study, displacement of [125I]-iodosulpride from HEK-293 cell membranes. The settings on record: for Ki: 0.1 nM [125I]-iodosulpride, HEK-293 membranes, 25°C, 60 minutes; for Selectivity [Ki(D2)/Ki(D3)]: ratio Ki(D2)/Ki(D3). On the procedure: (§1) The substance to be tested was either dissolved in methanol/Chremophor® (BASF-AG) or in dimethyl sulfoxide and then diluted with water to the desired concentration.
(§2) Each assay mixture was run in triplicate.
The incubation buffer contained 50 mM tris, 120 mM NaCl, 5 mM KCI, 2 mM CaCl2, 2 mM MgCl2 and 0.1% bovine serum albumin, 10 µM quinolone and 0.1% ascorbic acid (prepared fresh daily). The buffer was adjusted to pH 7.4 with HCl.
(§3) After having been incubated at 25°C for 60 minutes, the assay mixtures were filtered through a Wathman GF/B glass fiber filter under vacuum using a cell collecting device. The filters were transferred to scintillation viols using a filter transfer system. After 4 ml of Ultima Gold® (Packard) have been added, the samples were shaken for one hour and the radioactivity was then counted in a Beta-Counter (Packard, Tricarb 2000 or 2200CA). The cpm values were converted into dpm using a standard quench series and the program belonging to the instrument.
(§4) The inhibition curves were analyzed by means of iterative nonlinear regression analysis using the Statistical Analysis System (SAS) which is similar to the "LIGAND" program described by Munson and Rodbard.
A general note: Displacement assays read how much labelled ligand stays bound in the presence of the test substance.

The target in data set [2] is T2, human dopamine D2L receptors (long isoform) (Homo sapiens, UniProt P14416).
T2 construct: expressed in transfected cells; membranes used
T2 sequence (P14416 whole entry, canonical isoform): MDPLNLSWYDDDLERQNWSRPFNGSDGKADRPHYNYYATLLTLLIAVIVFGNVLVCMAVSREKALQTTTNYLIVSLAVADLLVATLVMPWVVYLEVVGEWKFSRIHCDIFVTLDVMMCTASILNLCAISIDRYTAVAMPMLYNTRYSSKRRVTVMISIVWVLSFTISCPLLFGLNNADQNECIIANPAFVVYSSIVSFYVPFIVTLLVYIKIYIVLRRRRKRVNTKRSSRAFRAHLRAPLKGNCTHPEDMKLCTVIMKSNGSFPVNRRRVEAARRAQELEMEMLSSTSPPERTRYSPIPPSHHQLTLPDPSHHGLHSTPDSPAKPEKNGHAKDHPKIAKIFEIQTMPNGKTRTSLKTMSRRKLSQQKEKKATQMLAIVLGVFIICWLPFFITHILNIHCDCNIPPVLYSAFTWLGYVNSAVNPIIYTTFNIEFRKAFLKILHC
In words: Receptor binding study, displacement of [125I] iodospiperone from HEK-293 cell membranes. The settings on record: 0.01 nM [125I] iodospiperone, HEK-293 membranes, 25°C, 60 minutes, read-out: Ki D2. On the procedure: as §1, §2
The incubation buffer contained 50 mM tris, 120 mM NaCl, 5 mM KCl, 2 mM CaCl2, 2 mM MgCl2 and 0.1% bovine serum albumin. The buffer was adjusted to pH 7.4 with HCl.
as §3, §4

Data set [3] in a line: Determination of the concentration of compounds in plasma and brain following oral dosing. Type of data set: in vivo, Male Sprague-Dawley rats. To be noted: rats, 10 mg/kg orally by gavage; samples at 0.5, 3 and 8 hours; value Cmax. On the procedure: Male Sprague-Dawley rats were used in this study (2 to 4 per experiment). The animals were fasted overnight prior to dosing and throughout the duration of the study but were permitted water ad libitum. Each rat received a 10 mg/kg (5 mL/kg) dose orally by gavage. At 0.5, 3 and 8 hours after drug administration, three animals were put under deep anesthesia using isoflurane and euthanized by bleeding (cardiac puncture) under deep isoflurane anesthesia. EDTA blood samples and brain tissue will be collected from each rat. Upon collection, the samples were promptly placed in an ice bath, and within 2 hours after sample collection, the blood was centrifuged at about 4°C. The resulting brain and plasma samples were placed in clean glass tubes and stored in a freezer until analysis. The plasma samples were assayed for parent compound using appropriate liquid chromatography - mass spectrometry procedures. The results are given in table 2 along with results obtained using the two reference compounds A and B, and illustrate the high brain concentrations attainable with the compounds of the invention.

T1 sequence (P35462 whole entry): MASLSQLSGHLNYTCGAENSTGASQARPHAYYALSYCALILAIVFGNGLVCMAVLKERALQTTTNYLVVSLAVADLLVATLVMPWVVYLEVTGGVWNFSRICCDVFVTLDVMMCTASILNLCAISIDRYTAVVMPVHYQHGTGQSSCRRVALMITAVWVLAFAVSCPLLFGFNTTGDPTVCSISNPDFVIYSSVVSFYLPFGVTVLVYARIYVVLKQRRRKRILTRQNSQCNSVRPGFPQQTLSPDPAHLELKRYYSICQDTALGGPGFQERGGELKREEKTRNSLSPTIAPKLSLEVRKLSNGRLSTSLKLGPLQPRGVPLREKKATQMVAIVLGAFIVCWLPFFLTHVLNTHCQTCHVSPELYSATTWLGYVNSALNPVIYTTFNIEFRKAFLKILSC

As for `Cl.Cn1cnnc1SCCCN1CCN(c2cc(C(F)(F)F)nc(C(C)(C)C)n2)CC1` [Example 6, 2-tert-Butyl-4-{4-[3-(4-methyl-4H-[1,2,4]triazol-3-ylsulfanyl)-propyl]-piperazin-1-yl}-6-trifluoromethyl-pyrimidine hydrochloride], in data set [1], the affinity, expressed as Ki, was 3.5 nM and the “Selectivity [Ki(D2)/Ki(D3)]” value is on record as 134. Also, in data set [2], the Ki was 469 nM. The Brain level in data set [3] stood at 2384 ng/g.

As to `CCCc1cc(N2CCN(CCCSc3nncn3C)CC2)nc(C(C)(C)C)n1.O=C(O)/C=C/C(=O)O` [Example 3, 2-tert-Butyl-4-{4-[3-(4-methyl-4H-[1,2,4]triazol-3-ylsulfanyl)-propyl]-piperazin-1-yl}-6-propyl-pyrimidine fumarate], the Ki in data set [1] is 3.3 nM; in data set [2], 412 nM. Besides, the “Selectivity [Ki(D2)/Ki(D3)]” value in data set [1] was determined as 125. In data set [3], the Brain level is listed as 1000 ng/g.

Consider `Cc1nnc(SCCCN2CCN(c3cc(C(F)F)nc(C(C)(C)C)n3)CC2)n1C.Cl` [Example 8, 2-tert-Butyl-4-{4-[3-(4-methyl-5-methyl-4H-[1,2,4]triazol-3-ylsulfanyl)-propyl]-piperazin-1-yl}-6-difluoromethyl-pyrimidine hydrochloride], for which the Ki in data set [1] was 1.8 nM; in data set [2], 401 nM. The “Selectivity [Ki(D2)/Ki(D3)]” value in data set [1] came to 224.

For `CCCc1cc(N2CCN(CCCSc3nnc(C)n3C)CC2)nc(C(C)(C)C)n1.Cl` [Example 4, 2-tert-Butyl-4-{4-[3-(4-methyl-5-methyl-4H-[1,2,4]triazol-3-ylsulfanyl)-propyl]-piperazin-1-yl}-6-propyl-pyrimidine hydrochloride], in data set [1], affinity was put at a Ki of 2.6 nM and the “Selectivity [Ki(D2)/Ki(D3)]” value came out at 83. The Ki in data set [2] is 216 nM. Also, the Brain level in data set [3] amounted to 483 ng/g.

On to `Cn1c(N)nnc1SCCCN1CCN(c2cc(C(C)(C)C)nc(C(C)(C)C)n2)CC1` [A*, reference compound], for which, in data set [3], the Brain level was 387 ng/g.

In turn, `Cn1c(N)nnc1SCCCN1CCN(c2cc(C(F)(F)F)nc(C(C)(C)C)n2)CC1` [B*, reference compound] gave a Brain level in data set [3] of 143 ng/g.

Take `Cc1nnc(SCCCN2CCN(c3cc(C(F)(F)F)nc(C(C)(C)C)n3)CC2)n1C.Cl` [Example 5, 2-tert-Butyl-4-{4-[3-(4-methyl-5-methyl-4H-[1,2,4]triazol-3-ylsulfanyl)-propyl]-piperazin-1-yl}-6-trifluoromethyl-pyrimidine hydrochloride]: in data set [1], the Ki came out at 3.7 nM and the “Selectivity [Ki(D2)/Ki(D3)]” value is given as 84. Besides, the Ki in data set [2] worked out at 311 nM. In addition, the Brain level in data set [3] is on record as 904 ng/g.

Consider `Cc1nnc(SCCCN2CCN(c3cc(C(C)(C)C)nc(C(C)(C)C)n3)CC2)n1C.Cl` [Example 1, 2-tert-Butyl-4-{4-[3-(4-methyl-5-methyl-4H-[1,2,4]triazol-3-ylsulfanyl)-propyl]-piperazin-1-yl}-6-tert-butyl-pyrimidine hydrochloride], for which, in data set [1], the Ki was determined as 1.1 nM and the “Selectivity [Ki(D2)/Ki(D3)]” value was 160. Moreover, in data set [2], the Ki is 176 nM. In data set [3], this compound registered a Brain level of 559 ng/g.

`Cl.Cn1cnnc1SCCCN1CCN(c2cc(C(F)F)nc(C(C)(C)C)n2)CC1` [Example 7, 2-tert-Butyl-4-{4-[3-(4-methyl-4H-[1,2,4]triazol-3-ylsulfanyl)-propyl]-piperazin-1-yl}-6-difluoromethyl-pyrimidine hydrochloride]: in data set [1], the Ki was found to be 2.9 nM and the “Selectivity [Ki(D2)/Ki(D3)]” value was 146. In addition, the Ki in data set [2] was 418 nM. This compound also registered a Brain level in data set [3] of 1430 ng/g.

As for `Cl.Cn1cnnc1SCCCN1CCN(c2cc(C(C)(C)C)nc(C(C)(C)C)n2)CC1` [Example 2, 2-tert-Butyl-4-{4-[3-(4-methyl-4H-[1,2,4]triazol-3-ylsulfanyl)-propyl]-piperazin-1-yl}-6-tert-butyl-pyrimidine hydrochloride], in data set [1], the Ki is 1.7 nM and the “Selectivity [Ki(D2)/Ki(D3)]” value came out at 75. The Ki in data set [2] was determined as 127 nM. The compound further yielded a Brain level in data set [3] of 1835 ng/g.

Usually Ki stands for a dissociation constant, usually derived from enzyme kinetics or from competition with a known ligand.
